Experimental data as given in patent US10918719B2, “Methods for cross-linking corneal collagen with verteporfin for the treatment of disorders of the eye” (Massachusetts Eye and Ear Infirmary, priority 2014, dated 2021).

Tests used:
[1] = test system: Human research corneas (de-epithelialized, 8.5-mm buttons) in collagenase A; test: Resistance to collagenase A digestion (time to total dissolution of cornea buttons); conditions: 0.3% collagenase A, 37° C.; for time to dissolution in collagenase A: untreated corneas 5.47 ± 0.21 hours; for Collagenase time to dissolution: 150 rpm, ex vivo de-epithelialized corneas, n=5, mean ± SD
Text: Human research corneas were obtained from Tissue Bank International (Baltimore, Md.) and North Carolina Eye Bank (Winston-Salem, N.C.). Riboflavin 5′-phosphate sodium salt hydrate, 20% (w/w) dextran solution (from Leuconostoc mesenteroides) and collagenase A (from Clostridium histolyticum, E.C. 3.4.24.3) were obtained from Sigma Aldrich (St. Louis, Mo.). Barron® artificial anterior chambers were purchased from Katena Eye Instruments (Denville, N.J.). The VEGA LED-based UV emitter was purchased from Costruzione Strumenti Oftalmici (Firenze, Italy). The Excells E24 incubator shaker series was purchased from New Brunswick Scientific (Enfield, Conn.).
The corneas were obtained in OptiZol® solution and stored at 4° C. until use. All experiments were performed within 2 weeks from the date of death of the donor. Each cornea was fitted into a Barron® artificial anterior chamber with normal balanced salt solution followed by mechanical removal of 8 mm of the central corneal epithelium with a blunt blade.
Conventional riboflavin-UVA (R+UVA) crosslinking was performed in an ex vivo fashion according to the Dresden protoco.^1-2 50 mg of riboflavin 5′-phosphate was added to 50 mL of dextran (w/w) and mixed thoroughly to make 0.1% riboflavin (1 mg/mL) solution. All solutions were covered in aluminum foil for protection from room UV light and stored at 4° C. until use. Riboflavin solution was topically administered every 5 minutes onto the surface of the de-epithelialized cornea for total instillation period of 30 minutes. UVA 370 nm light (X-Vega, Sooft SPA) was then focused onto the surface of the cornea at an irradiance of 3 mW/cm^2 (5.4 J/cm^2 fluence) for 5 minutes. The five-minute UVA exposure sequence was repeated 5 more times for a total UVA exposure time of 30 minutes. Prior to each 5-minute UVA treatment sequence, one drop of balanced salt solution and one drop of riboflavin were administered onto the surface of the cornea.
Each de-epithelialized cornea was placed on a Barron® artificial anterior chamber and underwent a treatment protocols (below) that included either topical verteporfin solution alone, non-thermal laser alone, or a combination of both topical verteporfin and non-thermal laser. Verteporfin solution was applied topically using the same formulation that is administered intravenously for the treatment of choroidal neovascularization^3-8 (6 mg/mL, Visudyne; Novartis Ophthalmics AG, Hettingen, Switzerland). A 689 nm wavelength non-thermal laser (Opal Photoactivator; Coherent Inc., Santa Clara, Calif.) was applied using a spot size of 7 mm at a power intensity of 600 mW/cm^2.
1. Topical verteporfin (V), without laser: Verteporfin solution was topically administered onto the surface of a de-epithelialized cornea every minute for 15 minutes. The tissue was not exposed to laser therapy.
3. Combined treatment of verteporfin with non-thermal laser for one treatment sequence (V+NTL-1): Verteporfin, which was prepared at a dose of 6 mg/ml (one drop per minute) was applied onto the de-epithelialized corneas every minute for fifteen minutes followed by one NTL treatment sequence. A 689 nm nonthermal laser light was delivered directly over a cornea with spot sizes (7 mm) at a power intensity of 600 mW/cm^2 for one minute only.
4. Combined treatment of Verteporfin with Non-Thermal Laser Therapy for six treatment sequences (V+NTL-6): Verteporfin solution (6 mg/ml) was topically applied every minute for fifteen minutes followed by six NTL sequences. One drop of balanced salt solution and one drop of verteporfin was administered between each treatment sequence. […]

[2] = test system: Human research corneas (corneal strips); test: Tensile strength testing (strip extensometry); conditions: for maximum stress observed prior to failure: tensile test at 0.025 mm/sec until failure, untreated 3.02 (FIG. 8); for maximum modulus value (tensile): versus untreated corneas (FIG. 9B); for instantaneous modulus values at 4%, 6%, and 8% strain (toe region): versus untreated corneas (FIG. 11)
Description: (§1) The biomechanical properties of untreated corneas and corneas treated with R+UVA and V+NTL6 were measured using gross observation, compression, creep and tensile strength testing. The corneas were stored in Optisol GS and refrigerated at 4° C. until the time of testing.
A rectangular strip of corneal tissue (approximately 3 mm wide and 14 mm long) was cut from each sample with a scalpel. The corneal strips were individually clamped between the two jaws of a microcomputer-controlled biomaterial tester (Minimat, Rheometriv Scientific GmbH).^15-20 Tensile testing was performed using a Shimadzu AGS-X (Cambridge Polymer Group, Inc. 56 Roland St suite 310, Boston, Mass. 02129, United States) load frame equipped with a 50 N load cell and pneumatic grips, which were lined with sandpaper for prevent tissue slippage. The pneumatic grips compensated for any dimensional change as the samples were stretched and allowed a fixed grip pressure of 35 pressure per square inch (psi) to be applied. The initial grip separation was set to 4.5 mm and tested at a rate of 0.025 mm/sec until failure. The strain (ε) was then increased linearly at a certain velocity, and the relative stress (s) was measured.
In this study, strip extensometry was performed using rectangular strips of corneal tissue that was extracted from untreated and treated corneas. The maximum stress observed prior to failure, the maximum modulus values, and the instantaneous modulus values at specific strain percentages were calculated. The stress-strain data can be broadly separated into two regions: an initial toe region that covers strain values typically observed in vivo, and the region covering extreme deformations not likely to be observed in vivo.
Finally, the initial toe region of each sample group was compared. The stress-strain data was offset such that the sample length at a stress of 0.02 MPa was defined as 0% strain (this offset is equivalent to defining a pre-stress of […] at the start of the tensile test). A representative plot showing the toe region of the tensile data for one specimen from each sample group is shown in FIG. 10, and the instantaneous modulus values at 4%, 6%, and 8% strain for each sample group are shown in FIG. 11.

[3] = test system: Human research corneas; test: Compression testing (Q800 DMA), Young's modulus; conditions: for slope of the stress-strain compression data versus untreated corneas: FIG. 5; for Young's modulus: linear fit of stress-strain curve between 0.08 and 0.10 MPa, untreated 0.43 MPa
Description: as §1
Compression testing was performed using a Q800 DMA (TA instruments). The tissue was placed within a submersion clamp and centered beneath a custom 8 mm diameter compression plate, as shown in FIG. 2. The submersion clamp was filled with 1× phosphate buffered saline (PBS) solution to prevent the sample from drying out during the test.
The elasticity of any tissue can be determined by measuring the stress (force on a cross-section point) and its relative strain (proportional deformation)^12,14. The Young's modulus is the proportion between the stress and strain values and reflects the elasticity of the tissue. A small Young's modulus value reflects more elasticity of a material and is represented in units of Newton/m^2.
Young's modulus was calculated as a linear fit of the final portion of the stress-strain curve, between stress values of 0.08 and 0.10 MPa (FIG. 6). Tissue treated by R+UVA and V+NTL6 had statistically larger moduli than untreated corneas. Corneas treated by V+NTL6 appeared to be slightly more stiff (0.80 vs 0.43 MPa, p<0.005) than those treated by R+UVA (0.70 vs 0.43 MPa, p<0.05), however this difference was not statistically significant.

[4] = test system: Human research corneas; test: Creep testing under constant force of 15 N; conditions: constant force 15 N, between 0 and 4.25 minutes; untreated −3.46
Description: The biomechanical properties of untreated corneas and corneas treated with R+UVA and V+NTL6 were measured using gross observation, compression, creep and tensile strength testing. The corneas were stored in Optisol GS and refrigerated at 4° C. until the time of testing. […] The sample was held under a constant force of 15 N and the strain was measured over a period of 4.25 minutes. Creep testing has been used to evaluate the biomechanical strength of tissue, such as the cornea, by applying a constant stress and monitoring the rate of deformation ^21In this study, cornea tissue was kept under a constant stress using a compression force of 15 N and then the slope of the strain-time curve was calculated between 0 and 4.25 minutes and represented the rate of tissue deformation.

[5] = test system: Human research corneas; test: Gross observation of corneal rigidity / curvature; conditions: for rigidity on gross examination versus untreated corneas: cornea strips placed horizontally in a clamp (FIG. 3); for Gross observation: ex vivo treated corneas
Description: as §1
For example, when cornea strips were placed horizontally in a clamp, the tissue treated by V+NTL6 and by R+UVA were noted to have a more pronounced curvature than the untreated control group (FIG. 3).

| Compound | time to dissolution in collagenase A ([1]; listed as riboflavin-UVA, sodium salt hydrate) | time to dissolution in collagenase A ([1]; sodium salt hydrate) | maximum stress observed prior to failure [2] | maximum modulus value (tensile) [2] | instantaneous modulus values at 4%, 6%, and 8% strain (toe region) [2] | slope of the stress-strain compression data versus untreated corneas [3] | Young's modulus [3] | creep rate (slope of the strain-time curve) [4] | rigidity on gross examination versus untreated corneas [5] | Collagenase time to dissolution ([1]; listed as V-NLT-1) | time to dissolution in collagenase A [1] | Gross observation ([5]; listed as V-NLT-1) | Collagenase time to dissolution ([1]; listed as V-NLT-6) | Gross observation ([5]; listed as V-NLT-6) | Collagenase time to dissolution [1] | Gross observation [5] |
| --- | --- | --- | --- | --- | --- | --- | --- | --- | --- | --- | --- | --- | --- | --- | --- | --- |
| Cc1cc2nc3c(=O)[nH]c(=O)nc-3n(C[C@H](O)[C@H](O)[C@H](O)COP(=O)([O-])O)c2cc1C.[Na+] [R+UVA, Riboflavin 5′-phosphate sodium salt hydrate] | 20.06 ± 1.23 h | 20.06 h | larger stress values prior to failure | statistically larger maximum modulus values than untreated corneas | no statistically significant difference was observed | steeper | 0.70 MPa | faster creep rate, but the difference was not statistically significant | much more rigidity than untreated corneas |  |  |  |  |  |  |  |
| verteporfin [V+NTL1] |  |  |  |  |  |  |  |  |  | 5.96 ± 0.39 h | 5.96 ± 0.39 h | No rigidity |  |  |  |  |
| verteporfin [V+NTL6] |  |  | 7.67 | statistically larger maximum modulus values than untreated corneas | statistically larger modulus values than untreated corneas | steeper | 0.80 MPa | −1.87 | much more rigidity than untreated corneas |  | 19.75 ± 0.95 h |  | 19.75 ± 0.95 h | Cornea rigid |  |  |
| verteporfin |  |  |  |  |  |  |  |  |  |  | 5.95 h |  |  |  | 5.95 ± 0.33 h | No rigidity |
